How the values were obtained:
PaTu8988T cells [1] = assay: CaspaseGlo 3/7 apoptosis assay, PaTu8988T; type: cell-based, human; settings: 72 h
Method: (§1) 6 Effect of small-molecule modulators on gemcitabine-induced apoptosis and tumor growth of PDAC cells. […] After 2 h, gemcitabine (GEM) was added at increasing concentrations (10 and 25 nM) or not (−) for another incubation of 72 h. Subsequently, the luminescence-based caspase3/7 assay was performed. The activity of caspase 3/7 in treated cells was normalized to the activity measured in untreated cells (dark gray bar), which was set to 1 (mean SD, n = 6 for PANC-1 and n = 4 for PaTu8988T; *: p ≤ 0.05, **: p ≤ 0.01, ***: p ≤ 0.001, using the student t-test). […] After 24 h, gemcitabine (GEM, 1 μM) was added (+) or not (−) for another incubation of 48 h. Subsequently, the apoptotic cell fraction was quantified in % by flow cytometry using FITC-labeled Annexin V (AV) and propidium iodide (PI) staining (in B: mean ± SD, n = 6 for PANC-1 and n = 5 for PaTu8988T; **: p ≤ 0.01, ***: p ≤ 0.001, ****: p ≤ 0.0001, using the student t-test). […] Viable cells are AV/PI double-negative (AV–/PI–, lower left quadrant, Q4), early apoptotic cells are AV single-positive (AV+/PI– upper left quadrant, Q1), late apoptotic cells are AV/PI double-positive (AV+/PI+, upper right quadrant, Q2), and necrotic cells are PI single-positive (AV–/PI+, lower right quadrant, Q3). The sum of early and late apoptotic cell numbers ([…] in %) is indicated in red. D-G: The workflow of the PDAC xenograft experiments in mice is depicted in D. PANC-1 cells (2 × 10^6 cells/mouse) were subcutaneously (s.c.) injected in the right flank of female athymic nude mice. Small tumor nodules appeared 6 days post-engraftment. […] Tumor volumes were measured every second day using a digital caliper. […] At the end of the 2 weeks, mice were sacrificed and tumors were dissected (F).
(§2) For quantification of apoptosis using the CaspaseGlo 3/7 assay (Promega), PANC-1 and PaTu8988T cells were seeded in triplicates in white 96-well plate (5 × 10^3 cells/well) and cultured in the absence or presence of compounds. After 2 h, as soon as the cells had settled, gemcitabine was added or not, and cells were incubated for another 72 h. Subsequently, the caspase3/7 activity was measured using the luminescence-based CaspaseGLO-3/7 assay (Promega). To this end, the CaspaseGlo reagent was subsequently added to the cells at a 1:1 ratio and incubated at room temperature and under agitation for 30 min protected from light. The luminescence measurements were carried out using a microplate reader (Mithras LB 940, Berthold).

PANC-1 cells = assay: CaspaseGlo 3/7 apoptosis assay, PANC-1; type: cell-based, human; settings: 72 h
Method: as §1, §2

PaTu8988T cells [2] = assay: Annexin V/PI flow cytometry apoptosis assay, PaTu8988T; type: cell-based, human; settings: Homo sapiens, PaTu 8988t, 48 h; read-out: Q4, viable cells (AV–/PI–)
Method: 6 Effect of small-molecule modulators on gemcitabine-induced apoptosis and tumor growth of PDAC cells. […] Subsequently, the luminescence-based caspase3/7 assay was performed. The activity of caspase 3/7 in treated cells was normalized to the activity measured in untreated cells (dark gray bar), which was set to 1 (mean SD, n = 6 for PANC-1 and n = 4 for PaTu8988T; *: p ≤ 0.05, **: p ≤ 0.01, ***: p ≤ 0.001, using the student t-test). […] After 24 h, gemcitabine (GEM, 1 μM) was added (+) or not (−) for another incubation of 48 h. Subsequently, the apoptotic cell fraction was quantified in % by flow cytometry using FITC-labeled Annexin V (AV) and propidium iodide (PI) staining (in B: mean ± SD, n = 6 for PANC-1 and n = 5 for PaTu8988T; **: p ≤ 0.01, ***: p ≤ 0.001, ****: p ≤ 0.0001, using the student t-test). […] Viable cells are AV/PI double-negative (AV–/PI–, lower left quadrant, Q4), early apoptotic cells are AV single-positive (AV+/PI– upper left quadrant, Q1), late apoptotic cells are AV/PI double-positive (AV+/PI+, upper right quadrant, Q2), and necrotic cells are PI single-positive (AV–/PI+, lower right quadrant, Q3). The sum of early and late apoptotic cell numbers (Q2+Q3 in %) is indicated in red. D-G: The workflow of the PDAC xenograft experiments in mice is depicted in D. PANC-1 cells (2 × 10^6 cells/mouse) were subcutaneously (s.c.) injected in the right flank of female athymic nude mice. […] Tumor volumes were measured every second day using a digital caliper. […] At the end of the 2 weeks, mice were sacrificed and tumors were dissected (F).
For quantification of apoptosis by Fluorescence Activated Cell Sorting (FACS), PANC-1 and PaTu8988T cells were seeded in 6-well plates (250 × 10^3 cells/well) and cultured in the absence or presence of compounds. After 24 h, gemcitabine was added or not for another 48 h. After harvesting and washing, unfixed cells (0.5–1 × 10^6) were incubated with FITC-labeled Annexin V and/or PI (BD Pharmingen) according to the manufacturer’s instructions. All samples were analyzed using a BD FACSCalibur flow cytometer (BD Bioscience). Data were acquired using the CellQuestPro program and analyzed with the FlowJo (FlowJo LLC) software.
After 24 hours, gemcitabine (GEM, 1 µM) was added (+) or not
(-) for another incubation of 48 hours. Subsequently, the apoptotic cell fraction was assessed by flow cytometry using FITC-labeled Annexin V (AV) and propidium iodide (PI) staining and quantified in % (mean ± SD, n=3-4; ns: not significant, *: p ≤0.05, **: p ≤0.01, ***: p ≤0.001, ****: p ≤0.0001, using the student t-test).

PANC-1 xenografts = assay: PDAC xenograft mouse model, tumor growth; type: in vivo; settings: female athymic nude mice, intraperitoneal, 2 weeks; 150 mg/kg TR-07 daily, 10 mg/kg gemcitabine every second day; n = 5
[3] = compound 10 μM, after 2 h gemcitabine 10 and 25 nM
[4] = TR-07 10 μM or gemcitabine 10 and 25 nM

| Compound | gemcitabine-induced apoptosis, caspase 3/7 activity, co-treatment (PaTu8988T cells [1]; [3]) | gemcitabine-induced apoptosis, caspase 3/7 activity, co-treatment (PANC-1 cells; [3]) | viability at 10 µM (PaTu8988T cells [2]) | tumor growth of PANC-1 xenografts (PANC-1 xenografts) | apoptosis, caspase 3/7 activity, single agent (PaTu8988T cells [1]; [4]) | apoptosis, caspase 3/7 activity, single agent (PANC-1 cells; [4]) |
| --- | --- | --- | --- | --- | --- | --- |
| CC(C)Oc1ccc(-c2c[nH]cc2CN(C)CCN)cc1 [MS023, reference compound] | diminished | diminished |  |  |  |  |
| Nc1ccn([C@@H]2O[C@H](CO)[C@@H](O)C2(F)F)c(=O)n1 [gemcitabine, reference compound] |  |  | 78.6% | significantly reduced the tumor growth compared to the control mice | underwent apoptosis in a gemcitabine concentration-dependent manner | underwent apoptosis in a gemcitabine concentration-dependent manner |

— article PMC13576449, “Small-Molecule Activators of PRMT1: Discovery, SAR Analyses, and Proapoptotic Effects in Pancreatic Cancer Cells” (Journal of Medicinal Chemistry, 2026)
